The structures appear in SMILES notation.

Series [1] concerns the target Beta-lactamase (Pseudomonas aeruginosa) (UniProt Q79MP6). Kind of series: Inhibition of Pseudomonas aeruginosa beta-lactamase IMP-1 expressed in Escherichia coli BL21(DE3) at 1000 uM using CENTA as chromogenic substrate.
Series [2] shares this target. Briefly: Inhibition of Pseudomonas aeruginosa beta-lactamase IMP-1 expressed in Escherichia coli BL21(DE3) at 10 uM using CENTA as chromogenic substrate.
The target is the same in series [3]. Kind of series: Competitive inhibition of Pseudomonas aeruginosa beta-lactamase IMP-1 assessed as formation of 4-nitrothiophenolate at pH 7 using CENTA as chromogenic substrate.
Series [4] has the same target. Briefly: Uncompetitive inhibition of Pseudomonas aeruginosa beta-lactamase IMP-1 assessed as formation of 4-nitrothiophenolate at pH 7 using CENTA as chromogenic substrate.
A short description of series [5]: Solubility of the compound. Type of series: physicochemical.
For series [6], the target named is Beta-lactamase (Pseudomonas aeruginosa) (UniProt Q79MP6). Kind of series: Inhibition of Pseudomonas aeruginosa beta-lactamase IMP-1 expressed in Escherichia coli BL21(DE3) at 100 uM using CENTA as chromogenic substrate.
Chain of Beta-lactamase (Pseudomonas aeruginosa) (Q79MP6 19-246 limits assumed): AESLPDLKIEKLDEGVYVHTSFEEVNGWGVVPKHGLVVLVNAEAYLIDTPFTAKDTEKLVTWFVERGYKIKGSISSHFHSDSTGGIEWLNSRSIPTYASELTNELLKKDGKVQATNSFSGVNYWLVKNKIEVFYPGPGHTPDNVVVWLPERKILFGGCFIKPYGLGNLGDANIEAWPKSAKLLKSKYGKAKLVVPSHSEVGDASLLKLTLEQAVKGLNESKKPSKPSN

For the compound `CSc1nnc(C(C)(C)C)[nH]1`, the inhibition in series [1] amounted to 10%.
As to `NC(S)=NNC(=O)c1ccccc1`, the inhibition in series [2] was found to be 22%. The Kic in series [3] was 19 µM. Besides, in series [4], the Kiuc amounted to 30 µM.
As for `O=[N+]([O-])c1cccc(-c2nnc(S)[nH]2)c1`, the solubility entry in series [5] was “Insoluble”.
The same measure, in the same setting: for `CCCCCCc1nnc(S)[nH]1` the value was “Insoluble”.
On to `NC(=S)NNC(=O)c1ccc(C(=O)c2ccc([N+](=O)[O-])cc2)cc1`, for which, in series [2], the inhibition amounted to 45%. The Kic in series [3] stood at 11 µM. For the same compound, the Kiuc in series [4] was found to be 20 µM.
With `O=C(O)CCCc1nnc(S)[nH]1`, the inhibition in series [6] was 5%; in series [2], 0%.
As to `Cc1nnc(S)[nH]1`, the inhibition in series [1] came to 33%.
Regarding `CC(C)(C)C(=O)NNC(N)=S`, in series [2], the inhibition amounted to 0%.
`CCc1nnc(S)[nH]1` showed an inhibition in series [1] of 32%.
The same measure, in the same setting: for `Cc1nnc[nH]1` the value was 0%.
`NC(=S)NNC(=O)c1cccc([N+](=O)[O-])c1` gave an inhibition in series [2] of 30%.
Regarding `NC(=S)NNC(=O)c1ccc(C(=O)c2ccccc2Cl)cc1`, in series [2], the inhibition stood at 51%. Also, in series [3], the Kic worked out at 14 µM. In addition, the Kiuc in series [4] is 13 µM.
Take `O=C(c1ccccc1)c1ccc(-c2nnc(S)[nH]2)cc1`: the inhibition was 44% in series [6] and 10% in series [2]. In series [3], the Kic was 75 µM. For the same compound, the Kiuc in series [4] turned out to be 56 µM.
As for `NC(=S)NNC(=O)CCC(=O)O`, the inhibition in series [2] turned out to be 13%.
Take `Cn1c(S)nnc1C(F)(F)F`: the inhibition in series [1] is 51%.
Same read-out and setting: for `FC(F)(F)c1nnc(S)[nH]1` the value was 45%.
Turning to `NC(=S)NNC(=O)c1ccc(Cc2ccccc2)cc1`, the inhibition in series [2] turned out to be 26%. Besides, the Kic in series [3] amounted to 18 µM. For the same compound, the Kiuc in series [4] came to 37 µM.
Turning to `C[C@H](CS)C(=O)N1CCC[C@H]1C(=O)O`, the Kiuc in series [4] is greater than 2000 µM.
In series [1], `CC(C)(C)c1nnc(S)[nH]1` gave an inhibition of 32%.
In series [2], `NC(=S)NNC(=O)c1ccc(C(=O)c2ccccc2)cc1` registered an inhibition of 34%. In addition, the Kic in series [3] stood at 13 µM. Besides, the Kiuc in series [4] came to 26 µM.
For `NC(=S)NNC(=O)CCCC(=O)O`, the inhibition in series [2] amounted to 8%.
In series [2], `NC(=S)NNC(=O)c1ccc(C(=O)c2cccc([N+](=O)[O-])c2)cc1` came in with an inhibition of 45%. Further, the Kic in series [3] amounted to 16 µM. The Kiuc in series [4] worked out at 15 µM.
For the compound `CCCCCCSc1nnc(C(C)(C)C)[nH]1`, in series [5], the solubility entry was “Insoluble”.
`O=C(O)CCc1nnc(S)[nH]1`: the inhibition in series [6] and in series [2] was 10% throughout.
Consider `O=C(O)c1ccccc1-c1nnc(S)[nH]1`, for which the results for the inhibition in series [6] and in series [2] were 7% and 0%, respectively.
With `Sc1n[nH]c(-c2ccccc2)n1`, the inhibition in series [1] is 0%.
In turn, `Cc1ccc(C(=O)c2ccc(C(=O)NNC(N)=S)cc2)cc1` displayed an inhibition in series [2] of 38%. Also, in series [3], the Kic was determined as 41 µM. Moreover, the Kiuc in series [4] amounted to 20 µM.
In the case of `CNC(=S)NNC(=O)C(C)(C)C`, the inhibition in series [2] came to 0%.
The same measure, in the same setting: then `NC(=S)NNC(=O)c1ccccc1C(=O)O`, with 0%.

The record behind these values is ChEMBL document CHEMBL1932941, “3-mercapto-1,2,4-triazoles and N-acylated thiosemicarbazides as metallo-β-lactamase inhibitors” (Bioorg Med Chem Lett, 2012).
